Data from ChEMBL document CHEMBL1141233, “3-(5-Chloro-2,4-dihydroxyphenyl)-pyrazole-4-carboxamides as inhibitors of the Hsp90 molecular chaperone” (Bioorg Med Chem Lett, 2005).
One block for each compound: values may come before it.

Key:
HCT-116 = test: Inhibition of cell proliferation in HCT116 human colon cancer cell line; assay type: functional
Heat shock protein HSP90 = Heat shock protein HSP90 (Homo sapiens, UniProt P07900+P08238); test: Binding affinity to Hsp90 by fluorescent polarization assay; assay type: protein assay

Compound: NS(=O)(=O)c1ccc(CNC(=O)c2cn[nH]c2-c2cc(Cl)c(O)cc2O)cc1
GI50 (HCT-116): > 80 µM

Compound: O=C(NCc1ccccc1)c1cn[nH]c1-c1cc(Cl)c(O)cc1O
IC50 (Heat shock protein HSP90): 12.8 µM
GI50 (HCT-116): > 80 µM

Compound: CC(=O)c1ccc(NC(=O)c2cn[nH]c2-c2cc(Cl)c(O)cc2O)cc1
GI50 (HCT-116): 11.6 µM

Compound: O=C(NCc1ccc(F)cc1)c1cn[nH]c1-c1cc(Cl)c(O)cc1O
IC50 (Heat shock protein HSP90): 5.35 µM
GI50 (HCT-116): 56.2 µM

Compound: O=C(NCc1ccco1)c1cn[nH]c1-c1cc(Cl)c(O)cc1O
IC50 (Heat shock protein HSP90): 35.6 µM

Compound: O=C(Nc1ccccn1)c1cn[nH]c1-c1cc(Cl)c(O)cc1O
IC50 (Heat shock protein HSP90): > 50 µM

Compound: O=C(Nc1ccc(Cl)cc1)c1cn[nH]c1-c1cc(Cl)c(O)cc1O
IC50 (Heat shock protein HSP90): 6.9 µM
GI50 (HCT-116): > 80 µM

Compound: O=C(NCc1cccc(C(F)(F)F)c1)c1cn[nH]c1-c1cc(Cl)c(O)cc1O
IC50 (Heat shock protein HSP90): 5.4 µM
GI50 (HCT-116): 45 µM

The remaining lines, values ahead:

IC50 (Heat shock protein HSP90): 7.1 µM
Compound: O=C(Nc1ccccc1)c1cn[nH]c1-c1cc(Cl)c(O)cc1O

IC50 (Heat shock protein HSP90): 10.7 µM
GI50 (HCT-116): > 80 µM
Compound: COc1cccc(CNC(=O)c2c[nH]nc2-c2cc(Cl)c(O)cc2O)c1

IC50 (Heat shock protein HSP90): 14.7 µM
GI50 (HCT-116): > 80 µM
Compound: O=C(Nc1ccc(O)cc1)c1c[nH]nc1-c1cc(Cl)c(O)cc1O

IC50 (Heat shock protein HSP90): 11.7 µM
GI50 (HCT-116): > 80 µM
Compound: COc1cccc(NC(=O)c2c[nH]nc2-c2cc(Cl)c(O)cc2O)c1

IC50 (Heat shock protein HSP90): 6 µM
GI50 (HCT-116): > 80 µM
Compound: COc1ccc(NC(=O)c2c[nH]nc2-c2cc(Cl)c(O)cc2O)cc1

IC50 (Heat shock protein HSP90): 6 µM
GI50 (HCT-116): 60.7 µM
Compound: COc1ccc(CNC(=O)c2c[nH]nc2-c2cc(Cl)c(O)cc2O)cc1

IC50 (Heat shock protein HSP90): 31.5 µM
GI50 (HCT-116): 59.7 µM
Compound: CC(=O)Nc1ccc(NC(=O)c2c[nH]nc2-c2cc(Cl)c(O)cc2O)cc1

IC50 (Heat shock protein HSP90): > 50 µM
Compound: COc1ccc(N(C)C(=O)c2c[nH]nc2-c2cc(Cl)c(O)cc2O)cc1
